Measurements reported in US20150335025A1 (priority 2014, published 2015).

Tested on: Bacillus anthracis Spores
Format: cell-based, Bacillus anthracis (Ames strain)

O=S(=O)([O-])OOS(=O)(=O)[O-].[Na+].[Na+] [Klozur ™, sodium persulfate]
Decontamination effectiveness against B. anthracis, topsoil compared with AZTD: not significantly different | Inactivation of B. anthracis: complete inactivation
